We go through three molecules from patent US20250222100A1, “COMPLETE TOLEROGENIC ADJUVANT AND METHODS OF USING THE SAME” (THE BOARD OF TRUSTEES OF THE UNIVERSITY OF ILLINOIS, priority 2024, published 2025).

Structures can show the parent of a compound that is named as a salt.

Experiment [1] relates to KJ1-26+ Treg and Teff cells in DLN, NLNs and spleen. Description: Inhibition of T cell egress with FTY720 in the model. The class given is in vivo, BALB/c Foxp3-eGFP mice. As to conditions: FTY720 with OVA-in-8203. How it is done:
Inhibition of T Cell Egress with FTY720. FTY720 was dissolved in DMSO at 20 μg/μl. On day 5 in the model, 1 μl of FTY720 was mixed with one dose of OVA-in-8203, and the mixture was injected into the primed footpad. As a control, 1 μl of DMSO was used in place of FTY720, and the mixture was injected into a control group. On days 6 and 7, the mice were given additional injections (i.p.) of FTY720 (or DMSO) at 1 μl (diluted in 100 μl PBS)/mouse/day. On day 8, KJ1-26^+ Treg and Teff cells in the DLN, NLNs, and the spleen were counted, as described earlier.

Experiment [2] concerns antigen-reactive Treg and Teff cells. Description: Ki67 assay of antigen-reactive T cells in AFK mice. The class given is in vivo, AFK mice (C57BL/6 Apoe-/- Foxp3-eGFP Ki67-tagRFP). As to conditions: FTY720 after 8206. On the procedure: Preparation and Injection of Composition 8206. Composition 8206 was prepared in the same steps as described for 8203 (Example 1), except that R848 was used in place of MPLA. It was injected subcutaneously at the back flank in 50 μl of PBS. PBS containing DMSO (as “PBS”), which was the initial solvent for rapamycin and R848, was used as a control.
Ki67-TagRFP-Based In Vitro Proliferation Assay for T Cells (“Ki67 Assay”). Total cells were isolated from lymphoid organs, washed twice in RPMI 1640/10% FCS, and counted by flow cytometry as described in Example 1. A portion of the isolated cells was cultured at 1×10^6 cells/well in a 96-well U-bottom plate. The wells were filled with 200 μl of RPMI 1640/10% FCS supplemented with 2-mercaptoethanol (50 μM), murine IL-2 (20 ng/ml), MPLA (100 ng/ml), sodium pyruvate (1 mM), and a peptide antigen (3 μg/ml) or DMSO (as a solvent control for the antigen). After 5 days, the cells were analyzed by flow cytometry with a BD FACS Melody. Proliferating Treg and Teff cells were identified as CD4+Foxp-eGFP+Ki67-TagRFP+CD62L1o and CD4+Foxp-eGFP Ki 67-TagRFP+CD62L10 populations, respectively; the cells were counted by the method of Schlenke ((1998) Cytometry 33:310-317). […] The difference was expressed as count/organ by multiplying the total number of cells in an organ divided by the portion used in the assay. […]

Experiment [3] deals with monocyte-derived macrophages in DLN, NLN and spleen. In words: Systemic MMφ influx into draining and non-draining lymph nodes (R848, 8206). The class given is in vivo, C56BL/6 mice. On the procedure: FIGS. 9A-9B show the effect of R848 on draining lymph node (DLN) versus non-draining lymph node (NLN). (FIG. 9A) C56BL/6 mice (10-week-old) were injected at the right-footpad with 20 μl of PBS containing DMSO (control), 3 μg of MPLA, or an equal molar amount (0.6 μg) of R848. At 24 hours, monocyte-derived macrophages (MM) in both the DLN and the NLN were counted by flow cytometry. Data are mean±SD of four experiments (on a log scale). * p≤0.001 (one-way ANOVA). (FIG. 9B) Dose-response analysis of R848. C56BL/6 mice (10-week-old) were injected subcutaneously at the back flank with 50 μl of PBS containing 8 μg of dexamethasone, 20 μg of rapamycin, and an indicated dose of R848. At 24 h, MMφ in popliteal lymph nodes were counted. Shown is a nonlinearly fitted substrate inhibition curve for mean±SD of 4-8 LNs. * p≤0.01 (one-way ANOVA).
C56BL/6 mice (10-week-old) were injected subcutaneously at the back flank with 8206 or PBS. At 24 hours, MMO in popliteal (PLN), axillary (ALN), mesenteric (MLN), and caudal mediastinal (CLN) lymph nodes and the spleen (SP) were counted. Data are mean±SD of four experiments (on a log scale). *p≤0.01 (t-test).
Preparation and Injection of Composition 8206. Composition 8206 was prepared in the same steps as described for 8203 (Example 1), except that R848 was used in place of MPLA. It was injected subcutaneously at the back flank in 50 μl of PBS. […]

For experiment [4], the system named is MMφs, DCs, Treg cells and Teff cells in draining lymph node. In words: Adjuvant-induced potentiation in lymphoid organs after footpad injection. In kind it is in vivo, mouse. To be noted: one day. On the procedure: Footpad Injection. “A footpad” means the footpad of the right hind leg. Adjuvant components, antigens, or their combinations were injected subcutaneously (s.c.) between the 3rd and 4th toes in a volume of ˜20 μl in phosphate-buffered saline (PBS) with a BD insulin syringe.
Dose-Response Analysis. For dose-response analysis of MPLA, the reagent was serially diluted in DMSO; 5 μl of the diluted reagent were mixed with 100 μl of PBS and the resulting mixture was injected at 20 μl/footpad. For dose 0, 5 μl of DMSO were mixed with 100 μl of PBS and the resulting mixture was injected. Dose-response analysis of rapamycin was performed similarly, except that PBS containing 3 μg of MPLA was used in place of PBS.
Analysis of Adjuvant-Induced Potentiation in Lymphoid Organs. […] Cells were analyzed by flow cytometry. […] The total counts of MMos (CD11^loCD40^lo) (Zheng et al. (2013) Eur. J. Immunol. 43:219-227) and DCs (all the CD11+CD40^+ cells after excluding the CD11^loCD40^lo cells) (Zheng et al. (2013) Eur. J. Immunol. 43:219-227) in the cell suspension were determined by the method of Schlenke et al. ((1998) Cytometry 33:310-317). The MMφ count in percent was calculated as % of the total MMO and DC counts combined. […]

In experiment [5] the test system is KJ1-26+ Treg and Teff cells. In words: Mouse model testing tolerogenic adjuvants (the model): KJ1-26+ T cell counts and proliferation. The class given is in vivo, BALB/c Foxp3-eGFP mice. To be noted: OVA with indicated components once every 3 days. On the procedure: Mouse Model Testing Tolerogenic Adjuvants (“the Model”). The model was generated as follows: On day 0, whole blood was collected with heparin as the anticoagulant from a DO11.10 Foxp3-eGFP mouse. The blood was diluted 1:50 in PBS and transfused intravenously (i.v.) into sex-matched syngeneic BALB/c Foxp3-eGFP mice at ˜100 μl (containing ˜4,000 CD4+KJ1-26^+ cells) per mouse. On day 1, the recipients were injected at a footpad with 100 μg of OVA in 20 μl of PBS (see “Footpad Injection”) and let rest. On day 5, they were used as the model.
Determination of CD4^+ T cell Counts in the Model. A cell suspension was prepared from the DLN, NLNs, or the spleen as described herein. For counting CD4^+ T cells in the DLN, a portion of the DLN cell suspension was stained with PE/Cy7 anti-CD3 and APC anti-CD4 and analyzed by flow cytometry. The total CD4^+ T cell count (CD3+CD4+) in the suspension was determined by the method of Schlenke et al. ((1998) Cytometry 33:310-317). […] Cells were analyzed by flow cytometry. The total counts in the suspension for KJ1-26^+ Treg, KJ1-26^+ Teff, host Treg, and host Teff cells were calculated as portions of the total CD4^+ T cell count. The count in percent for Treg cells (“% Treg”) was calculated as % of the total Treg and Teff counts combined. […]

As to `CCCCCCCCc1ccc(CCC(N)(CO)CO)cc1` [FTY720, fingolimod HCl], the “gain of KJ1-26+ Treg counts in NLNs and spleen” value in experiment [1] was “could be blocked”. In experiment [2], the “accumulation of P210m-reactive Treg cells in spleen with egress blocker” value is given as “could be inhibited”.
Consider `CCOCc1nc2c(N)nc3ccccc3c2n1CC(C)(C)O` [R848, resiquimod], for which the “optimal dose for systemic MMφ effect” value in experiment [3] (combined with 8 μg dexamethasone and 20 μg rapamycin, s.c. back flank) is “about 6 μg”.
With monophosphoryl lipid A [MPLA], the “influx of MMφs, Teff cells, DCs and Treg cells to the DLN” value in experiment [4] (injected alone into a footpad, BALB/c mouse) is “induced an influx of MMφs and Teff cells preferentially over that of DCs and Treg cells”. The “abundance and absolute number of MMφs in the DLN” value in experiment [4] (single footpad injection, BALB/c) is given as “attract MMS”. For the same molecule, in experiment [5], the “role of component in prolonging Treg cell expansion / shortening Teff cell expansion in DLN” value is listed as “not required here for either effect”. The “attraction of MMφs to non-draining lymph nodes” value in experiment [3] (footpad, 24 hours) was “could not”.
